Consider 17 molecules from patent US20100240654A1, “HYDRAZIDE DERIVATIVES” (priority 2004, published 2010).

Where a name gives a salt, the structure may show the parent alone.

The test system of one test is healthy human plasma. The test can be described thus: Blood clotting time prolongation (prothrombin time, steel ball method). The note with it: human thromboplastin, 37° C.
The target of test [1] is T1, human clotting factor VIIa (Homo sapiens, UniProt P08709).
T1 construct: a human clotting factor VIIa (Factor VIIa) purified sample; purchased Enzyme Research Laboratories (Factor VIIa); Calbiochem (tissue factor) HFVIIa (Factor VIIa); 612151 (tissue factor)
The test can be described thus: Inhibitory activity against clotting factor VIIa (chromogenic substrate Spectrozyme FVIIa, with tissue factor). The class given is biochemical. The note with it: 10 nmol/L TF, 5 nmol/L Factor VIIa, room temperature 40 minutes, 405 nm. The procedure: Dimethylsulfoxide (DMSO) solutions were prepared with compounds of the invention at concentration of 10 mmol/L (10 mmol/L compound solutions).
One packet of tris-hydroxymethylaminomethane-preset (Tris Preset) (product of SIGMA Corp., Catalog No. T8293), 8.8 g of sodium chloride (NaCl) and 1 g of bovine serum albumin (BSA) were dissolved in 1 L of water to prepare a Tris-BSA buffer (100 mmol/L Tris, 0.15 mol/L NaCl, 0.1% BSA, pH 7.4).
The Tris-BSA buffer (180 μL) was added to the aforementioned 10 mmol/L compound solution (20 μL). A 10-fold dilution series was prepared for this mixture using the aforementioned Tris-BSA buffer, and solutions with the compound at concentrations of 1.0 mmol/L, 100, 10, 1, 0.1, 0.01 and 0.001 μmol/L were prepared (1.0 mmol-0.001 μmol/L compound solutions).
As a control, a solution was prepared by 10-fold dilution of DMSO with the Tris-BSA buffer (control 10% solution).
After dissolving one packet of Tris preset, NaCl (8.8 g) and BSA (1 g) in water (about 900 mL), there were added 1 mol/L aqueous calcium chloride (CaCl2) (15 mL) and 1 mg/mL aqueous cephalin (30 mL), and the total volume was brought to 1 L by adding water. To this solution was added a human tissue factor (TF) sample (product of Calbiochem, Catalog No. 612151) (450 μg) to a TF sample concentration of 10 nmol/L, and then a human clotting factor VIIa (Factor VIIa) purified sample (product of Enzyme Research Laboratories, Catalog No. HFVIIa) (250 μg) was added to a Factor VIIa purified sample concentration of 5 nmol/L, to prepare an enzyme solution (100 mmol/L Tris-HCl, 0.15 mol/L NaCl, 15 mmol/L CaCl2, 30 μg/mL cephalin, 1 mg/mL BSA, 10 nmol/L TF, 5 nmol/L Factor VIIa).
To 110 μL of this enzyme solution was added 15 μL of each of the 1.0 mmol-0.001 μmol/L compound solutions, and then 25 μL of a 1.0 mmol/L synthetic chromogenic substrate solution (Spectrozyme FVIIa) was added and the mixture was allowed to stand at room temperature for 40 minutes. Next, the amount of 4-nitroanilide released into the solution was quantitated by spectrophotometry (405 nm).
A control measurement was conducted in the same manner, using the control 10% solution instead of the compound solution.
This measurement yielded the enzyme reaction inhibition in the presence of 100 μmol/L to 0.1 nmol/L of each compound of the invention. The enzyme reaction inhibition at each compound concentration was subjected to non-linear regression analysis, and the IC50 value for inhibitory activity of each compound against clotting factor VIIa was calculated.

T1 sequence (P08709 213-466 limits assumed): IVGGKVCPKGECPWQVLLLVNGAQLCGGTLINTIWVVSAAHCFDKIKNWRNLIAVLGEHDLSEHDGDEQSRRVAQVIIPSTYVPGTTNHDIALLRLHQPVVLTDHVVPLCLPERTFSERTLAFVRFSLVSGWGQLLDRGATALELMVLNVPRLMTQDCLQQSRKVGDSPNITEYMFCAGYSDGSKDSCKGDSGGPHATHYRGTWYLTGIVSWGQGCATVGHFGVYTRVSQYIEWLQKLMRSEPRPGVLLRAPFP
T1 sequence (P08709 61-212 limits assumed): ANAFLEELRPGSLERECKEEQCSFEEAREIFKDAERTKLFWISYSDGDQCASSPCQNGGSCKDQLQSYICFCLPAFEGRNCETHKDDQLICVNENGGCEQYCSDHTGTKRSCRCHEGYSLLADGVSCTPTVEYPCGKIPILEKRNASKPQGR
T1 sequence (P13726 33-295 partner): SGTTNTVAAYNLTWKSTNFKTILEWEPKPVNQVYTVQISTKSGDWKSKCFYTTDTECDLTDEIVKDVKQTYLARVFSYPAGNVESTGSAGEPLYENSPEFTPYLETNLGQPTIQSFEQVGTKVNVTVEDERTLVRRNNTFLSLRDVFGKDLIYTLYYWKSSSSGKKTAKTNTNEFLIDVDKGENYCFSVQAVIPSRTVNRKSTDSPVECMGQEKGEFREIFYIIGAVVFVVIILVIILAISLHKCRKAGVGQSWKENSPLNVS

What is called IC50 is the concentration that inhibits the measured activity by half. Lower therefore signals higher potency. `CCOc1cc(C(Nc2ccc(C(=N)N)cc2)C(=O)NNC(=O)c2ccccc2[N+](=O)[O-])ccc1OC(C)C.O=C(O)C(F)(F)F` (stereo not shown) [Example 32, 4-(1-(3-Ethoxy-4-isopropoxyphenyl)-2-(N′-(2-nitrobenzoyl)hydrazino)-2-oxoethylamino)benzamidine trifluoroacetate]: in the test on healthy human plasma, the “h PT × 1.1: compound concentration which produced 10% prolongation compared to the control clotting time” value was 0.80 µM. In test [1], this molecule displayed an IC50 of 110 nM.

Regarding `CCOc1cc(C(Nc2ccc(C(=N)N)cc2)C(=O)NNC(=O)c2cnccc2C)ccc1OC(C)C.O=C(O)C(F)(F)F` (stereo not shown) [Example 27, 4-(1-(3-Ethoxy-4-isopropoxyphenyl)-2-(N′-(4-methylpyridine-3-carbonyl)hydrazino)-2-oxoethylamino)benzamidine trifluoroacetate], the “h PT × 1.1: compound concentration which produced 10% prolongation compared to the control clotting time” value in the test with healthy human plasma is 0.74 µM. The IC50 in test [1] is 69 nM. As for `CCOc1cc(C(Nc2ccc(C(=N)N)cc2)C(=O)NNC(=O)c2cnccc2C)ccc1OCCOC.O=C(O)C(F)(F)F` (stereo not shown) [Example 76, 4-(1-(3-Ethoxy-4-(2-methoxyethoxy)phenyl)-2-(N′-(4-methylpyridine-3-carbonyl)hydrazino)-2-oxoethylamino)benzamidine trifluoroacetate], the “h PT × 1.1: compound concentration which produced 10% prolongation compared to the control clotting time” value in the test with healthy human plasma turned out to be 0.63 µM. Moreover, half-maximal inhibition in test [1] (IC50) was put at 169 nM.

For `COc1cc(F)c(C(Nc2ccc(C(=N)N)cc2)C(=O)NNC(=O)c2ccccc2Cl)cc1OC.O=C(O)C(F)(F)F` (stereo not shown) [Example 23, 4-(2-(N′-(2-Chlorobenzoyl)hydrazino)-1-(2-fluoro-4,5-dimethoxyphenyl)-2-oxoethylamino)benzamidine trifluoroacetate], the “h PT × 1.1: compound concentration which produced 10% prolongation compared to the control clotting time” value with healthy human plasma is 1.20 µM. The molecule further displayed an IC50 in test [1] of 255 nM. `CCOc1cc(C(Nc2ccc(C(=N)N)cc2)C(=O)NNS(=O)(=O)c2ccccc2S(C)(=O)=O)ccc1OC(C)C.O=C(O)C(F)(F)F` (stereo not shown) [Example 10]: in the test on healthy human plasma, the “h PT × 1.1: compound concentration which produced 10% prolongation compared to the control clotting time” value came to 1.20 µM. Consider `CCOc1cc(C(Nc2ccc(C(=N)N)cc2)C(=O)NNC(=O)c2ccncc2F)ccc1OCC(=O)N(C)C.O=C(O)C(F)(F)F` (stereo not shown) [Example 60, 2-(4-(1-(4-Carbamimidoylphenylamino)-2-(N′-(3-fluoropyridine-4-carbonyl)-hydrazino)-2-oxoethyl)-2-ethoxyphenoxy)-N,N-dimethyl-acetamide trifluoroacetate], for which, in the test with healthy human plasma, the “h PT × 1.1: compound concentration which produced 10% prolongation compared to the control clotting time” value is 0.30 µM. In test [1], this molecule registered an IC50 of 203 nM.

For the molecule `CCOc1cc(C(Nc2ccc(C(=N)N)cc2)C(=O)NNC(=O)c2ccccc2Cl)ccc1OCC(C)(C)N` (stereo not shown) [Example X-247, 4-[1-[4-(2-Amino-2-methylpropoxy)-3-ethoxyphenyl]-2-[N′-(2-chlorobenzoyl)-hydrazino]-2-oxoethylamino]benzamidine trifluoroacetate], the IC50 in test [1] worked out at 336 nM. Regarding `CCOc1cc(C(Nc2ccc(C(=N)N)cc2)C(=O)NNS(=O)(=O)c2ccc(NC(C)=O)cc2)ccc1OC(C)C.O=C(O)C(F)(F)F` (stereo not shown) [Example 9, N-(4-(2-(2-(4-Carbamimidoylphenylamino)-2-(3-ethoxy-4-isopropoxyphenyl)acetyl)hydrazinosulfonyl)phenyl)acetamide trifluoroacetate], the “h PT × 1.1: compound concentration which produced 10% prolongation compared to the control clotting time” value in the test on healthy human plasma turned out to be 1.30 µM. In addition, the concentration for half-maximal inhibition (IC50) in test [1] was determined as 316 nM. The matching figures for `CCOc1cc(C(Nc2ccc(C(=N)N)cc2)C(=O)NNC(=O)c2ccncc2Br)ccc1OC(C)C.O=C(O)C(F)(F)F` (stereo not shown) [Example 34, 4-(2-(N′-(3-Bromopyridine-4-carbonyl)hydrazino)-1-(3-ethoxy-4-isopropoxyphenyl)-2-oxoethylamino)benzamidine trifluoroacetate]: 1.40 µM and 63 nM. The matching figures for `CCOc1cc(C(Nc2ccc(C(=N)N)cc2)C(=O)NNC(=O)c2ccncc2F)ccc1OCCN(C)C.O=C(O)C(F)(F)F` (stereo not shown) [Example 53, 4-(1-(4-(2-Dimethylaminoethoxy)-3-ethoxyphenyl)-2-oxo-2-(N′-(3-fluoropyridine-4-carbonyl)hydrazino)ethylamino)benzamidine trifluoroacetate]: 0.65 µM and 164 nM.

As for `CCOc1cc(C(Nc2ccc(C(=N)N)cc2)C(=O)NNc2ccccc2C(=O)O)ccc1OC(C)C.O=C(O)C(F)(F)F` (stereo not shown) [Example 3, 2-(N′-(2-(4-Carbamimidoylphenylamino)-2-(3-ethoxy-4-isopropoxyphenyl)acetyl)hydrazino)benzoic acid trifluoroacetate], in the test on healthy human plasma, the “h PT × 1.1: compound concentration which produced 10% prolongation compared to the control clotting time” value came out at 1.00 µM. In test [1], this molecule showed an IC50 of 51 nM. The matching figures for `CCOc1cc(C(Nc2ccc(C(=N)N)cc2)C(=O)NNC(=O)c2ccncc2Cl)ccc1OC(C)C.O=C(O)C(F)(F)F` (stereo not shown) [Example 33, 4-(2-(N′-(3-Chloropyridine-4-carbonyl)hydrazino)-1-(3-ethoxy-4-isopropoxyphenyl)-2-oxoethylamino)benzamidine trifluoroacetate]: 1.10 µM and 57 nM. With `CCOc1cc(C(Nc2ccc(C(=N)N)cc2)C(=O)NNc2ccccn2)ccc1OC(C)C.O=C(O)C(F)(F)F` (stereo not shown) [Example 2, 4-(((3-Ethoxy-4-isopropoxyphenyl)-(N′-pyridin-2-ylhydrazinocarbonyl)methyl)amino)benzamidine trifluoroacetate], in the test on healthy human plasma, the “h PT × 1.1: compound concentration which produced 10% prolongation compared to the control clotting time” value was 1.00 µM. The molecule further showed an IC50 in test [1] of 96 nM. For the molecule `CCCOc1cc(OC)cc(C(Nc2ccc(C(=N)N)cc2)C(=O)NNC(=O)c2ccncc2)c1F.O=C(O)C(F)(F)F` (stereo not shown) [Example 81, 4-{1-(2-Fluoro-5-methoxy-3-propoxyphenyl)-2-oxo-2-[N′-(pyridine-4-carbonyl)hydrazino]ethylamino}benzamidine trifluoroacetate], the “h PT × 1.1: compound concentration which produced 10% prolongation compared to the control clotting time” value with healthy human plasma stood at 1.20 µM. Further, inhibition in test [1] was half-maximal at 78 nM (IC50). Consider `CCOc1cc(C(Nc2ccc(C(=N)N)cc2)C(=O)NNC(=O)c2ccccc2Cl)ccc1OC(C)CN(C)C.O=C(O)C(F)(F)F` (stereo not shown) [Example X-252, 4-(2-(N′-(2-Chlorobenzoyl)hydrazino)-1-(4-(2-dimethylamino-1-methylethoxy)-3-ethoxyphenyl)-2-oxoethylamino)benzamidine trifluoroacetate], for which the “h PT × 1.1: compound concentration which produced 10% prolongation compared to the control clotting time” value in the test on healthy human plasma turned out to be 0.76 µM. In test [1], this molecule gave a 50% inhibitory concentration (IC50) of 98 nM. In the same order, the values of `CCOc1cc(C(Nc2ccc(C(=N)N)cc2)C(=O)NNc2ccccc2C(=O)O)ccc1OC(C)CN(C)C.O=C(O)C(F)(F)F` (stereo not shown) [Example X-251, 2-(N′-(2-(4-Carbamimidoylphenylamino)-2-(4-(2-dimethylamino-1-methylethoxy)-3-ethoxyphenyl)acetyl)hydrazino)benzoic acid trifluoroacetate] are 0.68 µM and 166 nM. Turning to `CCOc1cc(C(Nc2ccc(C(=N)N)cc2)C(=O)NNS(=O)(=O)c2ccccc2S(C)(=O)=O)ccc1OC(C)C.O=C(O)C(F)(F)F` (stereo not shown) [Example 10, 4-(1-(3-Ethoxy-4-isopropoxyphenyl)-2-(2-(2-methanesulfonyl)phenylsulfonyl)hydrazino)-2-oxoethylamino)benzamidine trifluoroacetate], it took 233 nM to reach half-maximal inhibition in test [1] (IC50).
